Results on two compounds are retold here after paper PMC6352943, “Novel pyrazolo[3,4-d]pyrimidines: design, synthesis, anticancer activity, dual EGFR/ErbB2 receptor tyrosine kinases inhibitory activity, effects on cell cycle profile and caspase-3-mediated apoptosis” (Journal of Enzyme Inhibition and Medicinal Chemistry, 2019).

One test relates to CAKI-1. In words: NCI 60 cell line single dose screen (SRB). Type of test: cell-based. The following applies: Homo sapiens; CAKI-1 (renal cancer), single dose 10^−5 M, 48 h; read-out: Growth inhibition percentage. An outline of the steps:
(§1)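 Cells were plated and grown 24 h at 37 °C, 5% CO2 before compound addition from DMSO stock, then exposed 48 h. Adherent cells were fixed with cold TCA (final 10%) and suspension cells with 16% TCA. SRB-stained protein was read at 515 nm and percent growth was calculated against time-zero and untreated plates.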

A further test relates to UACC-62. In words: NCI 60 cell line single dose screen (SRB). Type of test: cell-based. The conditions noted are these: Homo sapiens; UACC-62 (melanoma), single dose 10^−5 M, 48 h; read-out: Growth inhibition percentage. A digest of the protocol:
as §1

For a further test, the system named is OVCAR-4. Nature of the test: MTT cell viability assay. Type of test: cell-based, human. The protocol: (§2) Cell Line cells were obtained from American Type Culture Collection, cells were cultured using Dulbecco's Modified Eagle's medium (DMEM) (Invitrogen/Life Technologies) supplemented with 10% foetal bovine serum (FBS) (Hyclone), 10 μg/mL of insulin (Sigma), and 1% penicillin-streptomycin. All of the other chemicals and reagents were from Sigma, or Invitrogen. Plate cells (cells density 1.2 – 1.8 × 10,000 cells/well) in a volume of 100 µL complete growth medium and 100 μL of the tested compound per well in a 96-well plate for 24 h before the MTT assay.
(§3) Remove culture medium to a centrifuge tube. […] Add 2.0 to 3.0 ml of Trypsin EDTA solution to flask and observe cells under an inverted microscope until cell layer is dispersed. Add 6 to 8 ml of complete growth medium and aspirate cells by gently pipetting. Transfer the cell suspension to the centrifuge tube with the medium and centrifuge for 5 to 10 min. Discard the supernatant. Resuspend the cell pellet in fresh growth medium. Add appropriate aliquots of the cell suspension to new culture vessels. Incubate cultures at 37 °C for 24 h. After treatment of cells with the serial concentrations of the compound to be tested incubation is carried out for 48 h at 37 °C, then the plates are to be examined under the inverted microscope and proceed for the MTT assay.
(§4) The 3–(4, 5-dimethylthiazol-2-yl)-2,5-diphenyltetrazolium bromide (MTT) method[30] of monitoring in vitro cytotoxicity is well suited for use with multiwell plates. The assessment of cell population growth is based on the capability of living cells to reduce the yellow product MTT to a blue product, formazan, by a reduction reaction occurring in the mitochondria. The five cell lines were incubated for 24 h in 96-microwell plates. The number of living cells in the presence or absence (control) of the various test compounds is directly proportional to the intensity of the blue colour, measured by spectrophotometry using (ROBONIK P2000 Spectrophotometer) at a wavelength of 570 nm. Measure the background absorbance of multiwell plates at 690 nm and subtract from the 570 nm measurement. Five concentrations ranging from 0.01 μM to 100 μM (with semi-log decrease in concentration) were tested for each of the compounds under study. Each experiment was carried out in triplicate. The IC50 values [the concentration required for 50% inhibition of cell viability] were calculated using sigmoidal dose response curve-fitting models.
For orientation: Tetrazolium dyes change colour on reduction, which living cells bring about.

For a further test, the system named is ACHN. Nature of the test: MTT cell viability assay. Type of test: cell-based, human. The protocol:
as §2, §3, §4

The subject of the next test is human active caspase-3. Nature of the test: Active caspase-3 level (ELISA) in OVCAR-4 cells. Type of test: cell-based. The conditions noted are these: OVCAR-4 cells treated at IC50 for 24 h. How it is done:
The level of human active caspase-3 protein was evaluated using Invitrogen (Catalog KHO1091) ELISA kit. The manufacturer’s instructions were followed in the following procedures. Add 100 μL of the standard diluent buffer to the zero standard wells. Add 100 μL of standards and controls or diluted samples to the appropriate microtitre wells. Cover wells with and incubate for 2 h at room temperature. Thoroughly aspirate or decant solution from wells and discard the liquid. Pipette 100 μL of caspase-3 (active) detection antibody solution into each well. Cover plate and incubate for 1 h at room temperature. Add 100 μL Anti-Rabbit IgG HRP working solution to each well. Cover wells with the plate cover and incubate for 30 min at room temperature. Add 100 μL of stabilised chromogen to each well. The liquid in the wells will begin to turn blue. Incubate for 30 min at room temperature. Stop solution has been added to each well. The solution in the wells should change from blue to yellow. Read the plate within 2 h after adding the stop solution. Use a curve fitting software to generate the standard curve.
EGFR and ErbB2 tyrosine kinase inhibitors are well known to potentiate the intrinsic apoptotic pathway via increase in caspase-3 enzyme activity[34]^,[35].
(In general: An ELISA detects its analyte on a solid surface through an enzyme-linked reagent.)

The target in the next test is T1, ErbB2 (Homo sapiens, UniProt P04626).
T1 construct: purchased
Nature of the test: ErbB2 kinase inhibition (HTScan HER2/ErbB2 Kinase Assay Kit). Type of test: biochemical. The conditions noted are these: mean ± SD of three experiments; read-out: IC50 for inhibitory activity against ErbB2 enzyme.

Several values for one entry are separate records, joined by “and”; a condition that tells them apart may be missing. Identical values can stand only once.

T1 sequence (P04626 23-1255): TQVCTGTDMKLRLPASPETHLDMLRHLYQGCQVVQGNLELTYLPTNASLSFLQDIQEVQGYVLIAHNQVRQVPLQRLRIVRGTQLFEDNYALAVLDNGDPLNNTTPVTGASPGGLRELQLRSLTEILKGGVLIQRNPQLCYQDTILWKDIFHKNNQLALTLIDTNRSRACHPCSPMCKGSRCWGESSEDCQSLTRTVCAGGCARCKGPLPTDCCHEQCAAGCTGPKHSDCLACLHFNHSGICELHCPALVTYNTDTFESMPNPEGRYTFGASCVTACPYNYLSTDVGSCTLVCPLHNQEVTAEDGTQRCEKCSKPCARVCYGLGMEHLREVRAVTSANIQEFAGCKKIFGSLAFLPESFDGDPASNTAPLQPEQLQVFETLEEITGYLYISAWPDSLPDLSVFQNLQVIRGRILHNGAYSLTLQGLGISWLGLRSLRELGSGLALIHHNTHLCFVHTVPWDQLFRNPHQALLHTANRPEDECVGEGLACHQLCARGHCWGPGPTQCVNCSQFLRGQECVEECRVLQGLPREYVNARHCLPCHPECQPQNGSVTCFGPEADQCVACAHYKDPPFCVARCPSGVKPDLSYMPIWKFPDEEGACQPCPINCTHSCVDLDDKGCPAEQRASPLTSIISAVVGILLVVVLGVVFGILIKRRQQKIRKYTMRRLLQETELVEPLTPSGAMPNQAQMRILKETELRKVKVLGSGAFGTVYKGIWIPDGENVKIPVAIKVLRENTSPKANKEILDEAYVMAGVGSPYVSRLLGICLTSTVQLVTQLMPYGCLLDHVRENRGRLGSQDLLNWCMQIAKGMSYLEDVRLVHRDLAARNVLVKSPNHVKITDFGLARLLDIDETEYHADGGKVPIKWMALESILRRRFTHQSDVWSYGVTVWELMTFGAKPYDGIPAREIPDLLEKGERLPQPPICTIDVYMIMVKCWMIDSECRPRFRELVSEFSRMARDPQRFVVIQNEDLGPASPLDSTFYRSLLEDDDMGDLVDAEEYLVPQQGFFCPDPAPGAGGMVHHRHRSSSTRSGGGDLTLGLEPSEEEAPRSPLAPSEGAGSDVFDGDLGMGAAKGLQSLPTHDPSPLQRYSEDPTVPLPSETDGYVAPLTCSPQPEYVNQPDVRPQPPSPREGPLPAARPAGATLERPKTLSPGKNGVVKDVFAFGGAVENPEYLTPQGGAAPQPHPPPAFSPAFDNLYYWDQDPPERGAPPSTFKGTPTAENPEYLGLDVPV
Protocol for ErbB2: In brief, add 10 μL of 10 mM ATP to 1.25 ml of 6 μM substrate peptide. Dilute the mixture with dH20 to 2.5 ml. Transfer enzyme from −80 °C to ice. Allow enzyme to thaw on ice. Micro-centrifuge briefly at 4 °C. Return immediately to ice. […] Transfer 1.2 ml of DTT/Kinase buffer to each enzyme. […] Add 25 μL of ATP/substrate cocktail to 25 μL/well pre-incubated reaction cocktail/compound. Incubate reaction plate at room temperature for 30 min. Add 50 μL/well stop buffer to stop the reaction. Transfer 25 μL of each reaction and 75 μL dH2O/well to a 96-well streptavidin coated, plate and incubate at room temperature for 60 min. Wash three times with 200 μL/well phosphate-buffered saline (PBS). […] Add 100 μL/well primary antibody. Incubate at room temperature for 60 min and wash three times. Prepare appropriate dilution of horseradish peroxidase (HRP) labelled secondary antibody in PBS with 1% BSA. Add 100 μL/well secondary antibody solution. Incubate at room temperature for 30 min and wash five times. Add 100 μL/well 3,3′,5,5′-tetramethylbenzidine (TMB) substrate. Incubate at room temperature for 15 min. Add 100 μL/well of stop solution. Mix well and read the absorbance at 450 nm with a microtitre plate reader.

As to `Cc1nn(-c2ccc(F)cc2)c2ncnc(Cl)c12` [Compound 6, 4-Chloro-1–(4-fluorophenyl)-3-methyl-1H-pyrazolo[3,4-d]pyrimidine], the inhibition (usually how much of the control response was suppressed) at 10 µM in the test with CAKI-1 turned out to be 1.02%; in the test on UACC-62, 12.6%.
Turning to `Cc1nn(-c2ccc(F)cc2)c2ncnc(Nc3ccc(F)c(Cl)c3)c12` [Compound 7d, N-(3-Chloro-4-fluorophenyl)-1–(4-fluorophenyl)-3-methyl-1H-pyrazolo[3,4-d] pyrimidin-4-amine], the IC50 was 1740 ± 60 nM with OVCAR-4 (Homo sapiens, OVCAR-4 ovarian cancer, MTT, 48 h, mean ± SD of three experiments, read-out: IC50 (concentration required for 50% inhibition of cell viability)); 5530 ± 310 nM with ACHN (Homo sapiens, ACHN renal cancer, MTT, 48 h, mean ± SD of three experiments, read-out: IC50 (concentration required for 50% inhibition of cell viability)); 250 nM and 254 nM at ErbB2. Moreover, the “Potency relative to Erlotinib (fold more potent)” value is on record as 1.6 fold in the test with OVCAR-4 (OVCAR-4, from IC50 values) and 2.2 fold in the test on ACHN (ACHN, from IC50 values). Besides, the “Increase in the level of active caspase-3 compared to control” value in the test on human active caspase-3 was 10.8 fold and 11 fold. The Caspase3 conc. with human active caspase-3 (mean ± SD of three experiments) came out at 568.50 ± 14.0 pg/mL.
